Laboratory results taken from PMC6154605, “Multi-Anti-Parasitic Activity of Arylidene Ketones and Thiazolidene Hydrazines against Trypanosoma cruzi and Leishmania spp” (Molecules : A Journal of Synthetic Chemistry and Natural …, 2017).
Where two headings read alike, the source gives them in different places. Marks after values point to notes of the source that are not given here.

Experiments:
[1] = system: L. braziliensis promastigotes; assay: Leishmanicidal activity on promastigotes, resazurin; assay type: cell-based, Leishmania braziliensis; conditions: for IC50: Leishmania braziliensis, 48 h, read-out: IC50 ± SD Promastigotes L. braziliensis; for SI NCTC/ L. braziliensis: ratio IC50 mammalian cell / IC50 parasite (promastigotes)
Description: (§1) We initially selected compounds previously reported to have anti-T. cruzi activity from our chemical library to evaluate their leishmanicidal activity. […]. To evaluate their activity in Leishmania spp., we performed a phenotypic screening using the promastigote form of L. infantum (MHOM/FR/91/LEM-2259) and L. braziliensis ([…]) (Table 1A for the thiazolidenehydrazine derivate and Table 1B for the arylideneketones family).
(§2) A culture of L. braziliensis (MHOM/BR/75/M2904) and L. infantum (MHOM/FR/91/LEM2259V) was obtained from the Facultad de Farmacia (Universidad Complutense, Madrid, Spain). The maintenance of the strains, the form of cultivation and the isolation of the shape of the promastigote were performed following the procedures described by Roldos et al.. The promastigotes were grown at 22 °C in Schneider’s Drosophila medium supplemented with 20% FBS. The assay was performed using a modification of a previous method. Promastigotes (2 × 10^6 parasites/well) were cultivated in 96-well plastic plates. Compounds were dissolved in dimethylsulfoxide (DMSO). Different dilutions of the compounds with a final volume up to 200 µL were added. After 48 h at 26 °C, 20 µL of a 2 mM resazurin solution were added, and the oxidation-reduction was quantified at 570 and 600 nm. The solution of resazurin was prepared at 2.5 mM in phosphate buffered solution (PBS), pH 7.4, and filtered through 0.22-µm membranes prior to use. All tests were carried out in triplicate. Resazurin sodium salt was obtained from Sigma-Aldrich (St. Louis, MO, USA) and stored at 4 °C protected from light. The efficacy of each compound was estimated by calculating the IC50 values. Each antiproliferative experiment was done in duplicate, and each concentration was tested in triplicate.

[2] = system: L. infantum promastigotes; assay: as above; assay type: cell-based, Leishmania infantum; conditions: for IC50: Leishmania infantum, 48 h, read-out: IC50 ± SD Promastigotes L. infantum; for SI NCTC/ L. infantum: ratio IC50 mammalian cell / IC50 parasite (promastigotes)
Description: as §1, §2

NCTC929 fibroblasts = assay: Nonspecific cytotoxicity on fibroblasts, resazurin; assay type: cell-based; conditions: NCTC-929, 24 h; read-out: IC50 ± SD Fibroblast NCTC929
Protocol: To establish the selectivity of the compounds against the parasites, nonspecific cytotoxicity against mammalian cells, using J774.1 murine macrophages and fibroblast NCTC929, was studied for the most relevant derivatives. The selectivity indexes were calculated as the ratio between cytotoxicity for mammalian cells and the anti-parasitic activity (Table 2).
NCTC-Clone 929 were grown in minimal essential medium (Sigma) supplemented with 10% heat-inactivated FBS, penicillin G (100 U/mL) and streptomycin (100 µg/mL). Cell cultures were maintained at 37 °C in a humidified 5% CO2 atmosphere. The procedure for cell viability measurement was evaluated with resazurin by a colorimetric method. The cells were plated in 96 microtiter plates at 3.00 × 10^4 cells/well in 100 µL growth medium. The cells were grown overnight at 37 °C, 5% CO2. Thereafter, the medium was removed, and the compounds were added to 200 µL of medium for 24 h. After incubation, 20 µL of a 2 mM resazurin solution were added to each well. The plates were incubated for 3 h to allow optimal oxidation-reduction. The reduction of resazurin was determined by dual wavelength absorbance measurement at 490 and 595 nm. The background was subtracted. Each concentration was assayed three times. Medium and drug controls were used in each test as blanks.

[3] = target: T1, LmTIM (triosephosphate isomerase from Leishmania mexicana) (Leishmania mexicana, UniProt P48499); assay: Inhibition of triosephosphate isomerase; assay type: biochemical; conditions: for inhibition at 100 µM: read-out: Percentage of Inhibition LmTIM; for IC50: read-out: IC50 ± SD LmTIM
T1 construct: made in house; host or cells: Escherichia coli
T1 sequence (P48499 whole entry): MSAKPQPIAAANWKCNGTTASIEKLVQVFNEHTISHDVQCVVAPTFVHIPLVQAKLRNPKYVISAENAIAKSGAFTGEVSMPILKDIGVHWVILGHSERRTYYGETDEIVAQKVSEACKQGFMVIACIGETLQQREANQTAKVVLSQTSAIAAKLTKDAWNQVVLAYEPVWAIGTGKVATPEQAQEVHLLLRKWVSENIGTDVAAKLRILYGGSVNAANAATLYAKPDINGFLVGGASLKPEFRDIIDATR
Protocol: Compounds were dissolved in DMSO. […] The experiments were performed in triplicate.

[4] = system: T. cruzi epimastigotes, Tulahuen 2 strain (genotype TcVI); conditions: cited from earlier work; for SI J774.1/ T. cruzi: ratio IC50 mammalian cell / IC50 parasite (epimastigotes); for IC50: read-out: IC50 ± SD Epimastigotes T. cruzi
[5] = system: J774.1 murine macrophages; conditions: read-out: IC50 ± SD Murine Macrophages, cited from earlier work
cruzipain [6] = target: T2, cruzipain (Trypanosoma cruzi, UniProt P25779); conditions: at 100 µM; cited from earlier work
T2 sequence (P25779 123-467): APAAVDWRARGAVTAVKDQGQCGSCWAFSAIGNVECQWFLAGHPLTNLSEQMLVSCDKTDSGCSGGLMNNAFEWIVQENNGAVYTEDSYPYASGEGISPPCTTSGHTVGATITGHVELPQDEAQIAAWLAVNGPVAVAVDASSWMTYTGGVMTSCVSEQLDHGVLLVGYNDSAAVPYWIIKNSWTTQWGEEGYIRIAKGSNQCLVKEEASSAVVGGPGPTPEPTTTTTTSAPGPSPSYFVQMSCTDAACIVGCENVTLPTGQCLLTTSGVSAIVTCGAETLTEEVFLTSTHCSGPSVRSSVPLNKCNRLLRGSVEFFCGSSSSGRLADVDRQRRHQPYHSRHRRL

[7] = target: T3, triosephosphate isomerase from T. cruzi (TcTIM) (Trypanosoma cruzi, UniProt P52270); design: made in house; host or cells: Escherichia coli; conditions: cited from earlier work; for Percentage of Inhibition TcTIM: at 100 µM; for IC50: read-out: IC50 ± SD TcTIM
T3 sequence (P52270 whole entry): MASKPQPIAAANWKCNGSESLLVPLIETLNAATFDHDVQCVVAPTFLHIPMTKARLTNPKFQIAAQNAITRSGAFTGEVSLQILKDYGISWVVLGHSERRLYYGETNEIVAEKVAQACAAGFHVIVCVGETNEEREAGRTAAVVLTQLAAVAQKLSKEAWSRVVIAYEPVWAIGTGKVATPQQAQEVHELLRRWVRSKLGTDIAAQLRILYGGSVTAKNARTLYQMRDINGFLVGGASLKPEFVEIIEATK

[8] = system: T. cruzi epimastigotes, Tulahuen 2 strain (genotype TcVI); assay: In vitro anti-T. cruzi activity, growth inhibition of epimastigotes; assay type: cell-based, Trypanosoma cruzi; conditions: ratio IC50 mammalian cell / IC50 parasite (epimastigotes)
Protocol: For the in vitro anti-T. cruzi activity, we used epimastigotes of the Tulahuen 2 strain (genotype TcVI) grown in an axenic milieu (BHI-Tryptose). Cells from a 5–7-day-old culture were inoculated in fresh culture milieu to give an initial concentration of 1.00 × 10^6 cells/mL. The absorbance at 600 nm of the cells in culture was measured every day. At Day 5, the milieu was inoculated with different quantities of the compounds from a stock solution in DMSO (DMSO concentration in the culture milieu never exceeded 0.4%). The control was made in the presence of 0.4% DMSO and in the absence of compounds. Each concentration of compound was evaluated in duplicate. At Day 5, the absorbance of the culture was measured and related to the control. […] Each antiproliferative experiment was done in duplicate, and each concentration was tested in triplicate.

[9] = system: L. infantum promastigotes; design: method as in PMID 11913540; conditions: superscript b printed; previously reported compound; read-out: IC50 ± SD Promastigotes L. infantum; cited from earlier work
cruzipain [10] = target: T2, cruzipain; assay: Inhibition of T. cruzi cruzipain; assay type: biochemical
Protocol: Cruzipain was purified to homogeneity from epimastigotes of the Tulahuen 2 strain by ConA–Sepharose affinity chromatography, as previously described. Cruzipain (2.5 μM ε = 58,285 M^−1cm^−1) was incubated in 50 mM acetate buffer pH 5.5 with 5 mM DTT, and 100 μM inhibitor were added, shaking the solution for 15 min at 27 °C. The derivatives were added as solutions in DMSO, and the controls contained the same solvent concentration. The concentration of DMSO never exceeded 1% in the reaction medium. L-leucylam-ido(4-guanidino)butane (E-64) was used as a positive control of inhibition. Then, the fluorogenic substrate Z-Phe-Arg 7-amido-4-methylcoumarin hydrochloride (Z-Phe-Arg-AMC) at 10 μM was added, and the fluorescence was measured during 10 min at intervals of 3 s (excitation at 380 nm and emission at 460 nm) using a Varioskan Flash Spectrophotometer. From the slope of the negative control, we calculated the total (100%) enzyme activity, while the slopes obtained in the presence of the compounds yielded the percentage of remaining enzyme activity. The percentage of enzyme inhibition was determined as […]. The experiments were done in duplicate.

zebrafish embryos = assay: Zebrafish embryo toxicity test (LD50)
Protocol: […] Only embryos that were clearly undamaged after 60 min of observation were kept and subsequently used. Dechorionated embryos were further manipulated using flame-rounded tip glass Pasteur pipettes. […] In all cases, the embryos were incubated in system water with 1% DMSO (negative control) and the compound at different doses between 8 and 96 hpf. The treatment solution was changed daily. […] At selected time points, namely 24, 48, 72 and 96 hpf, embryotoxicity (= mortality) and morphological characteristics of the embryos were evaluated using a Nikon SMZ800 stereomicroscope. The embryos were evaluated for the presence and morphological development (as appropriate) of somites, tail detachment, eyes, heart beat and blood circulation. All individuals were evaluated at all time points.

T. cruzi amastigotes = system: T. cruzi amastigotes; design: method as in PMID 26492824, PMID 24749923, doi:10.1039/C6RA27851E; conditions: 5 µM, 72 h; cited from earlier work
T. cruzi = conditions: 100 mg/kg body weight in mice, acute model; cited from earlier work
[11] = target: T3, triosephosphate isomerase from T. cruzi (TcTIM); assay: Inhibition of triosephosphate isomerase; conditions: read-out: Percentage of Inhibition TcTIM
Protocol: Expression and purification of proteins: TcTIM, LmTIM and HsTIM were expressed in Escherichia coli and purified as described in the literature [39]. […] Before use, extensive dialysis against 100 mM triethanolamine/10 mM EDTA (pH 7.4) was performed.
Enzymatic activity assays: Enzymatic activity was determined following the conversion of glyceraldehyde 3-phosphate into dihydroxyacetone phosphate. […] The reaction mixture (1 mL, pH 7.4) contained 100 mM triethanolamine, 10 mM EDTA, 0.2 mM NADH, 1 mM glyceraldehyde 3-phosphate and 0.9 units of α-glycerol phosphate dehydrogenase. The reaction was initiated by the addition of 5 ng/mL of the TcTIM.
The mixture also contained the compounds at the indicated concentrations. Compounds were dissolved in DMSO. After 2 h, 10 µL was withdrawn and added to a final volume of 100 µL of the reaction mixture for the activity assay. The inhibition assay was performed in a 96-well microplate Varioskan spectrophotometer. […] The experiments were performed in triplicate.

[12] = system: L. braziliensis promastigotes; design: method as in PMID 24749923; conditions: footnote c; read-out: IC50 ± SD Promastigotes L. braziliensis; cited from earlier work

Row | SMILES | IC50 [1] | SI NCTC/ L. braziliensis [1] | IC50 [2] | SI NCTC/ L. infantum [2] | IC50 (NCTC929 fibroblasts) | inhibition at 100 µM [3] | SI J774.1/ T. cruzi [4] | IC50 [4] | IC50 ([5]; J774.1) | Percentage of Inhibition Cruzipain (cruzipain [6]) | Percentage of Inhibition TcTIM [7] | SI J774.1/ T. cruzi [8] | IC50 [3] | further results
1 | O=C(/C=C/C=C/c1ccco1)/C=C/C=C/c1ccco1 [EA128] | 36 ± 9 µM | 14 | 31 ± 9 µM | 16 | 494 ± 25 µM | 0% | 12 ^c | 5 ± 0.7 µM | 60 ± 3 µM | 48/- ^d | 100 |  |  | 
2 | COc1cc(/C=C/C(=O)CC(=O)/C=C/c2ccc(O)c(OC)c2)ccc1O [Curcumin, reference compound] |  | 2 |  |  |  |  |  | 5.6 ± 1 µM |  |  |  | 2 |  | IC50 [9]: 5.9 ± 0.3 µM; IC50 [5]: 10 ± 2 µM
3 | C=CCn1c(C(=O)N2CCN(C/C=C/c3ccccc3)CC2)cs\c1=N/N=C/C=C/c1ccco1 [HIT1] | 12 ± 5 µM | 29 | 4 ± 1 µM | 87 | 346 ± 9 µM | 0% |  | 3.1 ± 0.2 µM | 30 ± 5 µM |  |  | 10 |  | inhibition at 100 µM (cruzipain [10]; at 100 µM, read-out: Percentage of Inhibition Cruzipain): 100%; IC50 (cruzipain [10]; pool of cruzipain isoforms obtained from T. cruzi, read-out: IC50 ± SD Cruzipain): 4.3 µM; LD50 without chorion (zebrafish embryos; dechorionated zebrafish embryos, 72 h incubation): 61 ± 2 µM; LD50 with chorion (zebrafish embryos; zebrafish embryos with chorion): > 100 µM; Amastigotes in infected Vero cell culture after treatment (T. cruzi amastigotes): cytosol without amastigotes; Reduction of the parasitemia (T. cruzi): 70%; inhibition at 100 µM [11]: 0%
4 | O=C(/C=C/c1cccs1)/C=C/c1cccs1 [EA138] | 8 ± 2 µM | 20 | 4 ± 0.5 µM | 40 | 158 ± 5 µM | 100% | 8 ^c | 5 ± 0.8 µM | 38 ± 7 µM | 50/- ^d | 0/- ^d |  | < 25 µM | 
5 | O=C1/C(=C/c2cccc3cnccc23)CC/C1=C\c1cccc2cnccc12 [Comp13, reference compound] |  | 23 |  |  |  |  |  | 31 ± 2 µM |  |  |  | 1 |  | IC50 [12]: 900 ± 200 nM; IC50 [5]: 21 ± 5 µM
6 | CC(/C=C/C(=O)/C=C/C(C)=C/c1ccco1)=C\c1ccco1 [EA155] | 16 ± 2 µM | 34 | 6 ± 1 µM | 91 | 543 ± 15 µM | 100% | 4 ^c | 8.2 ± 2 µM | 33 ± 8 µM | 0/- ^d | 100 |  | < 25 µM | IC50 [7]: 3300 nM
7 | O=C1/C(=C/C=C/c2ccco2)CCC/C1=C\C=C\c1ccco1 [HIT2] | 7 ± 1 µM | 23 | 13 ± 7 µM | 12 | 160 ± 9 µM | 100% | 17 ^c | 0.6 ± 0.2 µM | 10 ± 2 µM | 80 | 100 |  | < 25 µM | IC50 [7]: 86 nM
